Patent publication US9758524B2, “4-imidazopyridazin-1-yl-benzamides as Btk inhibitors” (Merck Sharp & Dohme B.V., priority 2011, dated 2017)
Like-named read-outs stand apart in the source and are kept apart here.

Key:
FynT enzyme = FynT enzyme (Homo sapiens (Human), UniProt P06241); assay: FynT enzyme activity (IMAP fluorescence polarization assay); format: biochemical; conditions: 60 min pre-incubation, 0.2 μM ATP
Protocol: FynT enzyme activity is measured using the IMAP (immobilized metal ion affinity-based fluorescence polarization) assay as outlined below.
Test compounds and FynT enzyme are pre-incubated 60 minutes at room temperature, before adding 5 μL/well of 400 nM Fluorescin labeled substrate peptide (p34cdc2 substrate peptide, e.g. #R7157/#R7172, Molecular Devices) in KR-buffer. Final peptide substrate concentration in assay is 100 nM. […] Following incubation for 2 h at room temperature the enzyme reaction is stopped by adding 40 μL/well IMAP Progressive Binding Solution (according to suppliers (Molecular Devices) protocol using 75% 1× buffer A and 25% 1× buffer B with 1:600 Progressive Binding Solution). After 60 min incubation at room temperature in the dark the FP signal is read. […] Values are calculated as percentage of the difference in readout (ΔmPi) of the controls with and without ATP. EC50 values are determined by curve fitting of the experimental results using Activity Base.

Btk enzyme (His-Btk) = Btk enzyme (His-Btk) (Homo sapiens (Human), UniProt Q06187); assay: Btk enzyme activity (IMAP fluorescence polarization assay)
Sequence of Btk enzyme (His-Btk) (Q06187 whole entry): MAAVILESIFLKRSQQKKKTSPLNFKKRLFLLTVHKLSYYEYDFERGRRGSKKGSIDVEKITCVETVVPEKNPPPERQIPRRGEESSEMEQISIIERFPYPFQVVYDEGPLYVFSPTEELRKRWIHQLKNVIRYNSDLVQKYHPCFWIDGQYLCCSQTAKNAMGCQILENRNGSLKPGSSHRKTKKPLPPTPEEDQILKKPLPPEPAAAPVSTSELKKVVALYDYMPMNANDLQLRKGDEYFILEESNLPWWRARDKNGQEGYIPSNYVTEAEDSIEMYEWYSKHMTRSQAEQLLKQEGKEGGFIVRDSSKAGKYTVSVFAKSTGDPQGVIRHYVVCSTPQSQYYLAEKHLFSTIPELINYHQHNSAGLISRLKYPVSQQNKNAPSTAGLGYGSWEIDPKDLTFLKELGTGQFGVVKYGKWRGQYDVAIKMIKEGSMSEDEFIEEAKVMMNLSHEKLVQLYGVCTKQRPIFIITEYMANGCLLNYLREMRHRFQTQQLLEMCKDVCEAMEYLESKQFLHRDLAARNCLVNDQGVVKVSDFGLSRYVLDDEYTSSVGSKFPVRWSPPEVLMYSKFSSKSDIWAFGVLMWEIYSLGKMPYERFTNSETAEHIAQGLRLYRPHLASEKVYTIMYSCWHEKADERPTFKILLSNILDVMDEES
Protocol: Inhibition of kinase activity can be measured using the Immobilized Metal Assay for Phosphochemicals (IMAP) assay. IMAP is a homogeneous fluorescence polarization (FP) assay based on affinity capture of phosphorylated peptide substrates. IMAP uses fluorescein-labeled peptide substrates that, upon phosphorylation by a protein kinase, bind to so-called IMAP nanoparticles, which are derivatized with trivalent metal complexes.
Final peptide substrate concentration in assay is 50 nM.

Src enzyme = Src enzyme (Homo sapiens (Human), UniProt P12931); assay: Src enzyme activity (IMAP fluorescence polarization assay)
Sequence of Src enzyme (P12931 whole entry, looked up): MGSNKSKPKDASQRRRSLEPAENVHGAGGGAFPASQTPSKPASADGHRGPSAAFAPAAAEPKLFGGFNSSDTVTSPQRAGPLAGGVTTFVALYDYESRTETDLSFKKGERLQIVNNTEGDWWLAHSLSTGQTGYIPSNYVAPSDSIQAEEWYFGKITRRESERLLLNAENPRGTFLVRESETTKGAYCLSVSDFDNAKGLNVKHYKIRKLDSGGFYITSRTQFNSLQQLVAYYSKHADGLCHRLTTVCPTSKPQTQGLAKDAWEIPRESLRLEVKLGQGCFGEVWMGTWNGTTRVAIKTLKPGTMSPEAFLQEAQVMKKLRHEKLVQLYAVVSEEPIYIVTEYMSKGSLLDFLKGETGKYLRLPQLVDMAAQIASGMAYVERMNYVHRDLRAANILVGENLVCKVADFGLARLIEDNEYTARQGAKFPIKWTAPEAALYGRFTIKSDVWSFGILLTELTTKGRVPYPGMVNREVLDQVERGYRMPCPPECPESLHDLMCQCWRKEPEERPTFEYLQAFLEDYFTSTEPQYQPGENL

Lyn enzyme = Lyn enzyme (Homo sapiens (Human), UniProt P07948); assay: Lyn enzyme activity (IMAP fluorescence polarization assay)
Sequence of Lyn enzyme (P07948 whole entry): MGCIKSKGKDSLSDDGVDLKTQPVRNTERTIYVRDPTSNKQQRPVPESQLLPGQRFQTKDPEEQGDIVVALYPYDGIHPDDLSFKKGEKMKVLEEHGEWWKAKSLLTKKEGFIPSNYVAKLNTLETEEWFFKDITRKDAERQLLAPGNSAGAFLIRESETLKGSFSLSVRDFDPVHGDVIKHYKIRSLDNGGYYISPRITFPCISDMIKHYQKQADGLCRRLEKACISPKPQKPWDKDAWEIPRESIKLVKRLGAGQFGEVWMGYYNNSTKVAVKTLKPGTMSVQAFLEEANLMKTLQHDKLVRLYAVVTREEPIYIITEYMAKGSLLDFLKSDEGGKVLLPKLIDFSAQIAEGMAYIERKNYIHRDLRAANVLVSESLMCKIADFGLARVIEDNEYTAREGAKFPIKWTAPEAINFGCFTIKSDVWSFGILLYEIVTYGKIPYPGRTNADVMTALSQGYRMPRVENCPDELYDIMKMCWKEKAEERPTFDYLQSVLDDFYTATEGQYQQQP

Lck enzyme = Lck enzyme (Homo sapiens (Human), UniProt P06239); assay: Lck enzyme activity (IMAP fluorescence polarization assay)
Sequence of Lck enzyme (P06239 whole entry): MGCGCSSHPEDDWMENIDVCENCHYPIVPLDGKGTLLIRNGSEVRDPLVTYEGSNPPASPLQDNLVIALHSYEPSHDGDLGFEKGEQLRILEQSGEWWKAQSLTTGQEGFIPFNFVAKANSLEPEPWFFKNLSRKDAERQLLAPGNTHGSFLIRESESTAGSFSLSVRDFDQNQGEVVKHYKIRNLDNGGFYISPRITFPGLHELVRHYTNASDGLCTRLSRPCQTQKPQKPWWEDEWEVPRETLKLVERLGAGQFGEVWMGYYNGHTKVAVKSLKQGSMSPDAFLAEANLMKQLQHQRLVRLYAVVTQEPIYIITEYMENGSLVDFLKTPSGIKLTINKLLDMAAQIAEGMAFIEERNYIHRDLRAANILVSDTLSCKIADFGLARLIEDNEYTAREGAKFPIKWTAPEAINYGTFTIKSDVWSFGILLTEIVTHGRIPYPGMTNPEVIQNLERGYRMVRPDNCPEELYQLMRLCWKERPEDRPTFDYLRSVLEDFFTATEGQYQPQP

[1] = IMAP, 60 min pre-incubation, 5 μM ATP, bin bound in nM
[2] = read-out: EC50 Src activity values, IMAP, 60 min pre-incubation, 4 μM ATP
[3] = read-out: EC50 Lyn activity values, 60 min pre-incubation, 2 μM ATP, bin bound in μM
[4] = read-out: EC50 Lck activity values, IMAP, 60 min pre-incubation, 6 μM ATP, bin bound in μM
[5] = read-out: EC50 Btk activity values, IMAP, 60 min pre-incubation, 5 μM ATP, bin bound in nM

Sequence of FynT enzyme (P06241 other isoform, or with tags, fused parts or gaps): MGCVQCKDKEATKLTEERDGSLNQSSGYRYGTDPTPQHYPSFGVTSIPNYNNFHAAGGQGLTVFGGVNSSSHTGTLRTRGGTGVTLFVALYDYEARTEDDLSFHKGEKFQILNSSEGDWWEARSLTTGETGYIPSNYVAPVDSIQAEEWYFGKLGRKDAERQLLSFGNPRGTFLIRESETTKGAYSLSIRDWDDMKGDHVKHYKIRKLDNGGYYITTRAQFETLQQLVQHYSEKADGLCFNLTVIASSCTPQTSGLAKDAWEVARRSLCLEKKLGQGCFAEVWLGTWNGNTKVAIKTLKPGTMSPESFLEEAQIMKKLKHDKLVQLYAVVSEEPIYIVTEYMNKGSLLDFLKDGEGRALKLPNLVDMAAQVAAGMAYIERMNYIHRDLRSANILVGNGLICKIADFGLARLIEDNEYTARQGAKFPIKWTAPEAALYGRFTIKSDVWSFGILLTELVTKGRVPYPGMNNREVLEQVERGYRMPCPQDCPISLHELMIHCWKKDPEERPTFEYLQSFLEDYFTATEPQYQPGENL

| SMILES | EC50 (FynT enzyme) | EC50 (Btk enzyme (His-Btk)) | EC50 Btk activity values (Btk enzyme (His-Btk); [1]) | EC50 (Src enzyme; [2]) | EC50 (Lyn enzyme; [3]) | EC50 (Lck enzyme; [4]) | EC50 (Btk enzyme (His-Btk); [5]) | EC50 (Src enzyme) | EC50 (Lyn enzyme; EC50 Lyn activity values, 60 min pre-incubation, 2 μM ATP, bin bound in μM) | EC50 (Lck enzyme) | EC50 Lyn activity values (Lyn enzyme; 60 min pre-incubation, 2 μM ATP, bin bound in μM) | EC50 (Lyn enzyme; EC50 Lyn activity values, 60 min pre-incubation, 2 μM ATP, bin bound in nM) | EC50 Lck activity values (Lck enzyme; IMAP, 60 min pre-incubation, 6 μM ATP, bin bound in μM) | EC50 Btk activity values (Btk enzyme (His-Btk); IMAP, 60 min pre-incubation, 5 μM ATP, bin bound in μM) |
| --- | --- | --- | --- | --- | --- | --- | --- | --- | --- | --- | --- | --- | --- | --- |
| CC(C)c1ccnc(NC(=O)c2ccc(-c3nc([C@@H]4CCCN4C(=O)c4ccnc(Cl)n4)n4ccnc(N)c34)cc2)c1 [Example 70, (S)-4-(8-amino-3-(1-(2-chloropyrimidine-4-carbonyl)pyrrolidin-2-yl)imidazo[1,5-a]pyrazin-1-yl)-N-(4-isopropylpyridin-2-yl)benzamide] | ≥ 1 µM | 10 to 100 nM | <100 nM | ≥ 1 µM | ≥ 1 µM | ≥ 1 µM |  |  |  |  |  |  |  |  |
| CCCc1ccnc(NC(=O)c2ccc(-c3nc([C@@H]4CCCCN4C(=O)/C=C/COC)n4ccnc(N)c34)cc2)c1 [Example 121, (S,E)-4-(8-amino-3-(1-(4-methoxybut-2-enoyl)piperidin-2-yl)imidazo[1,5-a]pyrazin-1-yl)-N-(4-propylpyridin-2-yl)benzamide] | ≥ 1 µM |  |  | ≥ 1 µM | ≥ 1 µM | ≥ 1 µM | < 10 nM |  |  |  |  |  |  |  |
| C=CC(=O)N1CCCC[C@H]1c1nc(-c2ccc(C(=O)Nc3ccccn3)cc2)c2c(N)nccn12 [Example 46, (S)-4-(3-(1-acryloylpiperidin-2-yl)-8-aminoimidazo[1,5-a]pyrazin-1-yl)-N-(pyridin-2-yl)benzamide] | ≥ 1 µM |  |  | ≥ 1 µM | ≥ 1 µM | ≥ 1 µM | < 10 nM |  |  |  |  |  |  |  |
| COC/C=C/C(=O)NCc1nc(-c2ccc(C(=O)Nc3ccccn3)cc2)c2c(N)nccn12 [Example 95, (E)-4-(8-amino-3-((4-methoxybut-2-enamido)methyl)imidazo[1,5-a]pyrazin-1-yl)-N-(pyridin-2-yl)benzamide] | ≥ 1 µM | 10 to 100 nM | <100 nM | ≥ 1 µM | ≥ 1 µM | ≥ 1 µM |  |  |  |  |  |  |  |  |
| COC/C=C/C(=O)N1CCC[C@H]1c1nc(-c2ccc(C(=O)Nc3cc(OC)ccn3)cc2)c2c(N)nccn12 [Example 51, (S,E)-4-(8-amino-3-(1-(4-methoxybut-2-enoyl)pyrrolidin-2-yl)imidazo[1,5-a]pyrazin-1-yl)-N-(4-methoxypyridin-2-yl)benzamide] | ≥ 1 µM | 10 to 100 nM | <100 nM | ≥ 1 µM | ≥ 1 µM | ≥ 1 µM |  |  |  |  |  |  |  |  |
| CCc1ccnc(NC(=O)c2ccc(-c3nc([C@@H]4CCCN4C(=O)/C=C/COC)n4ccnc(N)c34)cc2)c1 [Example 11, (S,E)-4-(8-Amino-3-(1-(4-methoxybut-2-enoyl)pyrrolidin-2-yl)imidazo[1,5-a]pyrazin-1-yl)-N-(4-ethylpyridin-2-yl)benzamide] | ≥ 1 µM | 10 to 100 nM | <100 nM | ≥ 1 µM | ≥ 1 µM | ≥ 1 µM |  |  |  |  |  |  |  |  |
| CC#CC(=O)N1CCCC[C@H]1c1nc(-c2ccc(C(=O)Nc3ccon3)cc2)c2c(N)nccn12 [Example 24, (S)-4-(8-Amino-3-(1-but-2-ynoylpiperidin-2-yl)imidazo[1,5-a]pyrazin-1-yl)-N-(isoxazol-3-yl)benzamide] | ≥ 1 µM | 10 to 100 nM | <100 nM | ≥ 1 µM | ≥ 1 µM | ≥ 1 µM |  |  |  |  |  |  |  |  |
| Nc1nccn2c([C@@H]3CCCN3C(=O)/C=C/CN3CCCC3)nc(-c3ccc(C(=O)Nc4ccccn4)cc3)c12 [Example 2, (S,E)-4-(8-amino-3-(1-(4-(pyrrolidin-1-yl)but-2-enoyl)pyrrolidin-2-yl)imidazo[1,5-a]pyrazin-1-yl)-N-(pyridin-2-yl)benzamide] | ≥ 1 µM | 10 to 100 nM | <100 nM |  |  |  |  | ≥ 1 µM | ≥ 1 µM | ≥ 1 µM |  |  |  |  |
| COC/C=C/C(=O)N(C)[C@@H](C)c1nc(-c2ccc(C(=O)Nc3cc(C(F)(F)F)ccn3)cc2)c2c(N)nccn12 [Example 75, (S,E)-4-(8-amino-3-(1-(4-methoxy-N-methylbut-2-enamido)ethyl)imidazo[1,5-a]pyrazin-1-yl)-N-(4-(trifluoromethyl)pyridin-2-yl)benzamide] | ≥ 1 µM |  |  | ≥ 1 µM | ≥ 1 µM | ≥ 1 µM | < 10 nM |  |  |  |  |  |  |  |
| C=CC(=O)NCc1nc(-c2ccc(C(=O)Nc3ccccn3)cc2)c2c(N)nccn12 [Example 29, 4-(3-(Acrylamidomethyl)-8-aminoimidazo[1,5-a]pyrazin-1-yl)-N-(pyridin-2-yl)benzamide] | ≥ 1 µM |  |  | ≥ 1 µM | ≥ 1 µM | ≥ 1 µM | < 10 nM |  |  |  |  |  |  |  |
| COC/C=C/C(=O)N1CCCC[C@H]1c1nc(-c2ccc(C(=O)Nc3cc(F)ccn3)cc2)c2c(N)nccn12 [Example 81, (S,E)-4-(8-amino-3-(1-(4-methoxybut-2-enoyl)piperidin-2-yl)imidazo[1,5-a]pyrazin-1-yl)-N-(4-fluoropyridin-2-yl)benzamide] | ≥ 1 µM | 10 to 100 nM | <100 nM | ≥ 1 µM | ≥ 1 µM | ≥ 1 µM |  |  |  |  |  |  |  |  |
| CC#CC(=O)N1CCCC[C@H]1c1nc(-c2ccc(C(=O)Nc3cc(F)ccn3)cc2)c2c(N)nccn12 [Example 44, (S)-4-(8-amino-3-(1-but-2-ynoylpiperidin-2-yl)imidazo[1,5-a]pyrazin-1-yl)-N-(4-fluoropyridin-2-yl)benzamide] | ≥ 1 µM |  |  | ≥ 1 µM | ≥ 1 µM | ≥ 1 µM | < 10 nM |  |  |  |  |  |  |  |
| Nc1nccn2c([C@@H]3CCCN3C(=O)c3ccnc(Cl)n3)nc(-c3ccc(C(=O)Nc4cc(C(F)(F)F)ccn4)cc3)c12 [Example 119, (S)-4-(8-amino-3-(1-(2-chloropyrimidine-4-carbonyl)pyrrolidin-2-yl)imidazo[1,5-a]pyrazin-1-yl)-N-(4-(trifluoromethyl)pyridin-2-yl)benzamide] | ≥ 1 µM | 10 to 100 nM | <100 nM | ≥ 1 µM | ≥ 1 µM | ≥ 1 µM |  |  |  |  |  |  |  |  |
| C=CC(=O)N1CCC[C@H]1c1nc(-c2ccc(C(=O)Nc3nccs3)cc2)c2c(N)nccn12 [Example 101, (S)-4-(3-(1-acryloylpyrrolidin-2-yl)-8-aminoimidazo[1,5-a]pyrazin-1-yl)-N-(thiazol-2-yl)benzamide] | ≥ 1 µM |  |  | ≥ 1 µM | ≥ 1 µM | ≥ 1 µM | < 10 nM |  |  |  |  |  |  |  |
| CC#CC(=O)N1CCC[C@H]1c1nc(-c2ccc(C(=O)Nc3cc(C(C)C)ccn3)cc2)c2c(N)nccn12 [Example 102, (S)-4-(8-amino-3-(1-but-2-ynoylpyrrolidin-2-yl)imidazo[1,5-a]pyrazin-1-yl)-N-(4-isopropylpyridin-2-yl)benzamide] | ≥ 1 µM |  |  | ≥ 1 µM | ≥ 1 µM | ≥ 1 µM | < 10 nM |  |  |  |  |  |  |  |
| C=CC(=O)N1CCC[C@H]1c1nc(-c2ccc(C(=O)Nc3cc(CC)ccn3)cc2)c2c(N)nccn12 [Example 126, (S)-4-(3-(1-acryloylpyrrolidin-2-yl)-8-aminoimidazo[1,5-a]pyrazin-1-yl)-N-(4-ethylpyridin-2-yl)benzamide] | ≥ 1 µM |  |  | ≥ 1 µM |  |  | < 10 nM |  |  | 0.1 to 1 µM | <1 µM | 0.1 to 1 µM | <1 µM |  |
| C=CC(=O)N[C@@H](C)c1nc(-c2ccc(C(=O)Nc3ccccn3)cc2)c2c(N)nccn12 [Example 100, (S)-4-(3-(1-acrylamidoethyl)-8-aminoimidazo[1,5-a]pyrazin-1-yl)-N-(pyridin-2-yl)benzamide] | ≥ 1 µM |  |  | ≥ 1 µM | ≥ 1 µM | ≥ 1 µM | < 10 nM |  |  |  |  |  |  |  |
| CC#CC(=O)N[C@@H](C)c1nc(-c2ccc(C(=O)Nc3ccccn3)cc2)c2c(N)nccn12 [Example 30, (S)-4-(8-Amino-3-(1-but-2-ynamidoethyl)imidazo[1,5-a]pyrazin-1-yl)-N-(pyridin-2-yl)benzamide] | ≥ 1 µM |  |  | ≥ 1 µM | ≥ 1 µM | ≥ 1 µM | < 10 nM |  |  |  |  |  |  |  |
| C=CC(=O)N1CCCC[C@H]1c1nc(-c2ccc(C(=O)Nc3ccccn3)cc2C)c2c(N)nccn12 [Example 68, 4-(3-((S)-1-acryloylpiperidin-2-yl)-8-aminoimidazo[1,5-a]pyrazin-1-yl)-3-methyl-N-(pyridin-2-yl)benzamide] | ≥ 1 µM | 100 to 1000 nM |  | ≥ 1 µM | ≥ 1 µM | ≥ 1 µM |  |  |  |  |  |  |  | <1000 nM |
